Values after ≈ are worked out from the molar mass of the structure shown. “Also recorded” adds a separate entry of the source.

Data on 8 compounds can be found in article PMC4883112 (Journal of medicinal chemistry, 2015).

One data set concerns the target GSK-3β (Sus scrofa, UniProt B2LUN4). Description: Commercial in vitro GSK-3β inhibition assay at single concentration. Type of data set: biochemical, porcine. Conditions: duplicates; for inhibition at 1 µM: read-out: GSK-3β Inhibition [%], 1 μM of compound.
The nature of data set [1]: Aqueous solubility, Shake-Flask method and HPLC. Type of data set: physicochemical. To be noted: water with 2% DMSO.
The test system of another data set is NB4 and HL-60 cell lines. As to the kind of experiment: Methylcellulose colony formation. It is filed as cell-based. Conditions: concentration-dependent.
A further data set deals with GSK-3α (Sus scrofa, UniProt I6LNT8). Description: Commercial in vitro GSK-3α inhibition assay at single concentration. It is filed as biochemical, porcine. To be noted: read-out: GSK-3α Inhibition [%].
Chain of GSK-3α (I6LNT8 1-483): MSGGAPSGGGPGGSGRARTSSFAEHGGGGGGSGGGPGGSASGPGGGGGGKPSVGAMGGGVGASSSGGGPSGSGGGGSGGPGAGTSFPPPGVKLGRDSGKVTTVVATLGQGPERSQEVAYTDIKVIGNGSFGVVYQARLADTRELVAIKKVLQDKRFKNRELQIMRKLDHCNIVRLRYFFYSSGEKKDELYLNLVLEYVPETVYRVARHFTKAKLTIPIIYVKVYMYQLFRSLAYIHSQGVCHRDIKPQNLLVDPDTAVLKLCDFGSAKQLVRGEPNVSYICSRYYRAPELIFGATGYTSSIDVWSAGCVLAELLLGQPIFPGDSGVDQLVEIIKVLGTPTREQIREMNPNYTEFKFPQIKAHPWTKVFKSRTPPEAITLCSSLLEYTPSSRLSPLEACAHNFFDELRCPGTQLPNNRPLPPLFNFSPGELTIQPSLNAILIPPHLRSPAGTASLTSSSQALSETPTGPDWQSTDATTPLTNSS
Data set [2] concerns AML cell lines (HL-60 and NB4). Description: AML differentiation. It is filed as cell-based. To be noted: 6 days of treatment.
In another data set the target is GSK-3β (h) (Homo sapiens, UniProt P49841). As to the kind of experiment: IC50 determination GSK-3β. Type of data set: biochemical.
Chain of GSK-3β (h) (P49841 whole entry): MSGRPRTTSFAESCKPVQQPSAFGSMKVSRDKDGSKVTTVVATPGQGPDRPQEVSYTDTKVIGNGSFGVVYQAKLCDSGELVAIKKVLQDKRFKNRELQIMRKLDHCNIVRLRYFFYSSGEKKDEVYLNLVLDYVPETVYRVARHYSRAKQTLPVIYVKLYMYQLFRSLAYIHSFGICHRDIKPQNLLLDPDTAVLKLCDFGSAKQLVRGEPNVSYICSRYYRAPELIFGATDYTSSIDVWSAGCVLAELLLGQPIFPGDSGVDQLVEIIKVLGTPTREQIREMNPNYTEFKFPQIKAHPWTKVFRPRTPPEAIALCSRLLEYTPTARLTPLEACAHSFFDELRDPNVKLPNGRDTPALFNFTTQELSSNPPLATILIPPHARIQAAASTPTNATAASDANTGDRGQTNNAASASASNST
The test system of data set [3] is Tyr279 GSK-3α phosphorylation. Description: GSK-3α Tyr279 phosphorylation in AML cells. Type of data set: cell-based. To be noted: 24h treatment, increasing concentrations, NB4.
Data set [4] concerns wild-type zebrafish (Danio rerio) embryos. Description: Wild-type zebrafish embryo phenotype assay. Conditions: for Lethality in zebrafish embryos: concentration range < 60μM, added 24 hpf, compared at 96 and 120 hpf.
For data set [5], the system named is Tyr216 GSK-3β phosphorylation. As to the kind of experiment: GSK-3β Tyr216 phosphorylation in AML cells. Conditions: up to 20 μM; 24h treatment, NB4. It is filed as cell-based.

Chain of GSK-3β (B2LUN4 1-420): as the sequence (P49841 whole entry) above, with V40M, T59A, T392S, A400T, T402A, A411T counted along it

Broadly, the inhibition is the change of the read-out against control, counted positive when it falls. For the compound `N#Cc1cc(F)ccc1-c1ccc(CSc2nnc(-c3ccc4nc[nH]c4c3)o2)cc1` [Compound 12a, 4′-(((5-(1H-Benzo[d]imidazol-6-yl)-1,3,4-oxadiazol-2-yl)thio)methyl)-4-fluoro-[1,1′-biphenyl]-2-carbonitrile], the inhibition at 1 µM at GSK-3β was found to be 0%.
By solubility is commonly meant how much of the substance goes into solution per volume. A higher solubility goes with a readily soluble substance. As for `Fc1ccc(-c2ccc(CSc3nnc(-c4ccc5c(c4)OCCO5)o3)cn2)cn1` [Compound 18c, 2-(2,3-Dihydrobenzo[b][1,4]dioxin-6-yl)-5-(((6′-fluoro-[2,3′-bipyridin]-5-yl)methyl)thio)-1,3,4-oxadiazole], the solubility in data set [1] was below 1 µg/mL.
By IC50 is commonly meant the concentration that gives 50% inhibition. `NC(=O)c1cc(F)ccc1-c1ccc(CSc2nnc(-c3ccc4c(c3)OCCO4)o2)cc1` [Compound 27, 4′-((5-(2,3-Dihydrobenzo[b][1,4]dioxin-6-yl)-1,3,4-oxadiazol-2-yl-thio)-methyl)-4-fluorbiphenyl-2-carboxamide]: the Methylcellulose colony formation entry in the data set on NB4 and HL-60 cell lines is “colony formation impairment”. Further, the inhibition at 1 µM on GSK-3α was 100%. The “Morphological and surface marker changes” value in [2] is reported as “consistent with AML differentiation”. The amount in solution in data set [1] (solubility) came to 34 µg/mL (≈ 73.4 µM). The compound further registered an IC50 on GSK-3β (h) of 0.014 µM. For the same compound, the “Tyr279 GSK-3α phosphorylation” value in [3] is on record as “concentration-dependent decrease”. For the same compound, the inhibition at 1 µM on GSK-3β is 100%. Also, in data set [4], the “Lethality in zebrafish embryos” value is “no lethality; also recorded: without lethality”. For the same compound, in data set [4] (in vivo), the “Zebrafish embryo phenotype at higher concentrations” value is “all zebrafish embryos showed a stunted and crooked tailed phenotype”; the “Zebrafish embryo phenotype at lower concentrations” value was “no abnormalities were observed”. In addition, the “Tyr216 GSK-3β phosphorylation” value in data set [5] is “without any relevant effect”.
In the case of `N#Cc1ccc(-c2ccc(CSc3nnc(-c4ccc5c(c4)OCCO5)o3)cc2)nc1` [Compound 13d, 6-(4-((5-(2,3-Dihydrobenzo[b][1,4]dioxin-6-yl)-1,3,4-oxadiazol-2-ylthio)methyl)phenyl)-nicotinonitrile], the solubility in data set [1] was found to be 78 µg/mL (≈ 182 µM). The “Lethality in zebrafish embryos” value in [4] is listed as “no lethality”. The “Effects on zebrafish embryo phenotype” value in data set [4] (in vivo) was “no effects”.
On to `N#Cc1cc(F)ccc1-c1ccc(CS(=O)(=O)c2nnc(-c3ccc4c(c3)OCCO4)o2)cc1` [Compound 26, 4′-((5-(2,3-Dihydrobenzo[b][1,4]dioxin-6-yl)-1,3,4-oxadiazol-2-yl-sulfonyl)methyl)-4-fluorbiphenyl-2-carbonitrile], for which the inhibition at 0.1 µM on GSK-3α was determined as 0%; at GSK-3β (read-out: GSK-3β Inhibition [%], 100 nM of compound) it was 0%.
Take `Cc1ccc(-c2ccc(CSc3nnc(-c4ccc5c(c4)OCCO5)o3)cc2)nc1` [Compound 13e, 2-(2,3-Dihydrobenzo[b][1,4]dioxin-6-yl)-5-(4-(5-methylpyridin-2-yl)benzylthio)-1,3,4-oxadiazole]: the solubility in data set [1] is below 1 µg/mL.
The same measure, in the same setting: as for `N#Cc1cc(F)ccc1-c1ccc(CSc2nnc(-c3ccc4c(c3)OCCO4)o2)cc1` [Compound 1, 4′-(((5-(2,3-Dihydrobenzo[b][1,4]dioxin-6-yl)-1,3,4-oxadiazol-2-yl)thio)methyl)-4-fluoro-[1,1′-biphenyl]-2-carbonitrile], the figure is below 1 µg/mL; as for `Fc1ccc(-c2ccc(CSc3nnc(-c4ccc5c(c4)OCCO5)o3)cc2)cn1` [Compound 13f, 2-(2,3-Dihydrobenzo[b][1,4]dioxin-6-yl)-5-((4-(6-fluoropyridin-3-yl)benzyl)thio)-1,3,4-oxadiazole], 7 µg/mL (≈ 16.6 µM).
